The assay addresses Glucagon receptor (Rattus norvegicus, UniProt P30082). In words: pA2 value towards glucagon receptor relative to glucagon was calculated.

Sequence of Glucagon receptor (P30082 whole entry): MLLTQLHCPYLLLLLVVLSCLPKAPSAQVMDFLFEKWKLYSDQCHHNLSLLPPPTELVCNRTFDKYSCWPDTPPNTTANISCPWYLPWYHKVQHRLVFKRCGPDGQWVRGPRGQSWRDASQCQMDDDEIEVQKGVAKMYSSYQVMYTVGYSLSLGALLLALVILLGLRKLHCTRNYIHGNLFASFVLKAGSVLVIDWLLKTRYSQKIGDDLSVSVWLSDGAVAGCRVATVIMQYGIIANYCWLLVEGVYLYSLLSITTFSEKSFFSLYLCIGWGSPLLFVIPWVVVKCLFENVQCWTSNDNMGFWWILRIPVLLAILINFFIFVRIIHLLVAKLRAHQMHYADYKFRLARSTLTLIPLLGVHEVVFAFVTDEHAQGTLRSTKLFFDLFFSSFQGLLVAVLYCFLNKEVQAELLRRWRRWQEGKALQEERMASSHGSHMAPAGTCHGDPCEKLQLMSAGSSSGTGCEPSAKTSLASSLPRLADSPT

Take H-SQGTTSEYSKYLDSRRAQDFVQWLMNT-NH2: the Kb was 6.31 nM.

The values above are taken from ChEMBL document CHEMBL1150501 (Bioorg Med Chem Lett, 1995).
